Results as given in patent publication US20030113814A1, “Identification of modulators of gpr55 activity” (priority 2002, published 2003).

Experiments:
Human GPR55 = target: T1, Human GPR55 (Homo sapiens, UniProt Q9Y2T6); assay: Yeast FUS1-lacZ/FUS1-HIS3 reporter gene induction assay, yeast expressing p426GPD-GPR55 with Gpa1/Gα chimeras; format: cell-based
T1 construct: expressed in transfected cells; host or cells: Saccharomyces cerevisiae strains MMY14-MMY24 (STE2 and GPA1 deleted, Gpa1/Gα chimeras integrated)
T1 sequence (Q9Y2T6 whole entry): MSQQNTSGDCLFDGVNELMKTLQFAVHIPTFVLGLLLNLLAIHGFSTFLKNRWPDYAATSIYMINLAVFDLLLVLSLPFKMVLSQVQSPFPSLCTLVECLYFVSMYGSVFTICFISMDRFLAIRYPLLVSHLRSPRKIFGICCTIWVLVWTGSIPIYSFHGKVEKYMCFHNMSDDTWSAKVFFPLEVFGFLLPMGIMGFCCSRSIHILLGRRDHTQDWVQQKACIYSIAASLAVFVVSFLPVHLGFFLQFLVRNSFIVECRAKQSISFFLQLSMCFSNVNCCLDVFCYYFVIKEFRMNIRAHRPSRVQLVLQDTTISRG
Source text: These strains contain a series of genetic modifications to enable coupling of heterologously expressed receptors to the expression of two reporter genes, via the endogenous yeast pheromone response signal transduction pathway. Importantly, the gene encoding the endogenous yeast pheromone receptor, STE2, has been deleted from these strains such that cells containing p426GPD-GPR55 will express GPR55 protein in place of Ste2 receptor protein. Furthermore, the gene encoding the G-protein α-subunit involved in the pheromone response, GPA1, has been deleted from these strains. To enable receptor coupling in strains MMY14-24, plasmid constructs encoding modified versions of GPA1 have been stably integrated into the yeast chromosome and are expressed in place of endogenous yeast GPA1. […] Generally, the modifications made to Gpa1 facilitate coupling of heterologously expressed receptors to the yeast pheromone response pathway.
In vivo assays of reporter gene induction were carried out by suspending yeast cells transformed as described above to a density of 0.02 OD600/ml in 200 μl SC-glucose (2%) medium lacking tryptophan, uracil and histidine. This medium was supplemented with 10 mM 3-aminotriazole and the β-galactosidase (lacZ) substrate chlorophenolred-β-D-galactopyranoside (CPRG; Boehringer Mannheim) to a concentration of 0.1 mg/ml. […] To visualise the yellow to red colour change reaction occurring on degradation of CPRG due to β-galactosidase, the medium was buffered to pH 7 with 0.1 M sodium phosphate. The assay was conducted in flat-bottomed sterile 96-well microtitre plates. Plates were incubated for 24 hours at 30° C. without agitation, and absorbance at 570 nm was determined using a Spectrofluor microtitre plate reader (Tecan).

EDG1 = target: T2, EDG1 (Homo sapiens, UniProt P21453); assay: Yeast reporter gene assay with unrelated receptor; format: cell-based
T2 construct: expressed in transfected cells; host or cells: Saccharomyces cerevisiae reporter strain (inferred from context)
T2 sequence (P21453 whole entry): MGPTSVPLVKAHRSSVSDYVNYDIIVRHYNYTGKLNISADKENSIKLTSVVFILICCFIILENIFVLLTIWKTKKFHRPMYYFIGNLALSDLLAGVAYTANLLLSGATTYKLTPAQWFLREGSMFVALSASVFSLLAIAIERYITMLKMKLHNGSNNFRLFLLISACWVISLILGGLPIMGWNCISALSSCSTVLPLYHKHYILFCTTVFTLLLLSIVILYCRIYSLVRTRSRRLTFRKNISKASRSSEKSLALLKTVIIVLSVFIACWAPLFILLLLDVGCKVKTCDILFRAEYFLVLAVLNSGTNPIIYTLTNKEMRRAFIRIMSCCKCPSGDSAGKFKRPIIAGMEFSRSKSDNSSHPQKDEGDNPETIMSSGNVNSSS

[1] = tested on: control cells transformed with the vector p426GPD in combination with Gpa1/Gα13 and therefore lacking GPR55; assay: Yeast reporter gene assay in control cells transformed with vector p426GPD (lacking GPR55); format: cell-based, Saccharomyces cerevisiae; settings: data not shown
Source text: A system of yeast strains MMY14-MMY24 has been described previously (Olesnicky et al, EMBO J. 18, 2756-2763, 1999, Brown et al, Yeast 16, 11-22, 2000). These strains contain a series of genetic modifications to enable coupling of heterologously expressed receptors to the expression of two reporter genes, via the endogenous yeast pheromone response signal transduction pathway. Importantly, the gene encoding the endogenous yeast pheromone receptor, STE2, has been deleted from these strains such that cells containing p426GPD-GPR55 will express GPR55 protein in place of Ste2 receptor protein. Furthermore, the gene encoding the G-protein α-subunit involved in the pheromone response, GPA1, has been deleted from these strains. To enable receptor coupling in strains MMY14-24, plasmid constructs encoding modified versions of GPA1 have been stably integrated into the yeast chromosome and are expressed in place of endogenous yeast GPA1. […]
In vivo assays of reporter gene induction were carried out by suspending yeast cells transformed as described above to a density of 0.02 OD600/ml in 200 μl SC-glucose (2%) medium lacking tryptophan, uracil and histidine. […] Plates were incubated for 24 hours at 30° C. without agitation, and absorbance at 570 nm was determined using a Spectrofluor microtitre plate reader (Tecan).

SMILES: Cc1c(C(=O)NN2CCCCC2)nn(-c2ccc(Cl)cc2Cl)c1-c1ccc(I)cc1 [AM251, N-(piperidin-1-yl)-5-(4-iodophenyl)-1-(2,4-dichlorophenyl)-4-methyl-1H-pyrazole-3-carboxamide]
- agonism at GPR 55 (Human GPR55; GPR 55 expressed in yeast containing Gpa1/GαI3, Gαi2 and Gαi3 chimeras (FIG. 3 legend)): acts as an agonist
- GPR55 activity in strain expressing Gpa1/Gα12 (Human GPR55; Gpa1/Gα12): Activity has also been observed
- GPR55 activity in strains expressing Gpa1/Gαi2 or Gpa1/Gαi3 (Human GPR55; Gpa1/Gαi2 or Gpa1/Gαi3 (FIG. 3)): weaker activities
- reporter gene activity (Human GPR55; yeast co-expressing p426GPD-GPR55 and Gpa1/Gα13, response dependent on concentration (FIG. 3)): significant increase
- activation of GPR55 (Human GPR55; yeast reporter assay): up to 60 fold over background
- activation of unrelated receptors (EDG1) (EDG1): 1.3 fold over background
- increase in reporter gene activity in control cells [1]: not observed

SMILES: Cc1c(C(=O)NN2CCOCC2)nn(-c2ccc(Cl)cc2Cl)c1-c1ccc(I)cc1 [AM281, 1-(2,4-dichlorophenyl)-5-(4-iodophenyl)-4-methyl-N-4-morpholinyl-1H-pyrazole-3-carboxamide]
- activity at GPR55 (Human GPR55; tested at GPR55 in yeast, data not shown): appeared active
